# Laboratory results taken from patent publication US20180071354A1, “SELECTIVE BREEDING METHOD OF ANTITUMOR/ANTICANCER CAMELLIA SINENSIS STRAIN, AND TEA PRODUCT OF SUCH STRAIN” (FUJIAN AGRICULTURE AND FORESTRY UNIVERSITY, priority 2015, published 2018).
# Legend:
# Type in all cases: cell-based
# [1] = system: human ovarian cancer cell line SK-OV-3; assay: In vitro antitumor/anticancer testing (CCK-8), SK-OV-3; conditions: 48 h
# Description: (§1) Each of Tea Product 1 and Conventional Tea Product obtained in section A of this example was used to prepare test tea samples according to the method described below. A proper amount of the respective tea product was added into sterile water to prepare a stock solution with a concentration of 100 mg/mL, followed by using a membrane filter with a pore size of 0.22 μm to conduct vacuum filtration and sterilization. The resulting stock solution was diluted with a respective complete medium shown in Table 3 below to form test tea samples with different concentrations. In other words, the thus obtained test tea samples to be used for treating a respective cancer/tumor cell line shown in Table 3 were prepared using the same complete medium as that for the respective cancer/tumor cell line. […] Specifically, each of the aforesaid commercially available agents was subjected to the method described below to prepare comparative test samples. A proper amount of a respective commercially available agent was dissolved in phosphate-buffered saline (PBS) to prepare a stock solution with a concentration of 5 mg/mL, followed by using a membrane filter with a pore size of 0.22 μm to conduct vacuum filtration and sterilization. The resulting stock solution was diluted with a respective complete medium shown in Table 3 below to form comparative test samples with different concentrations. To be specific, the comparative test samples prepared from the respective commercially available agent have the concentrations shown in Table 2 below. The thus obtained comparative test samples to be used for treating a respective cancer/tumor cell line shown in Table 3 were prepared using the same complete medium as that for the respective cancer/tumor cell line. […] The cultivation of each cancer/tumor cell line is described as follows. […] Afterwards, a cell suspension having a cell density of 1.0×10^4 cells/mL was prepared. […] As experimental groups, the tumor/cancer cells of each cell line were treated with the test tea samples prepared from one or more of the tea products and the comparative test samples prepared from one or more of the commercially available agents as obtained in section B of this example (for more detailed information about the tea product(s) and the commercially available product (s) used to treat each cell line, please see Table 4 below). To be specific, 6 to 10 test tea samples prepared from the same tea product and having different concentrations, as well as 6 to 10 comparative test samples prepared from the same commercially available agent and having different concentrations, were utilized to treat the tumor/cancer cells of each cell line. For each experimental group, 6 repetitions of tumor/cancer treatment were performed. For the control group, 100 μL of PBS was added to a well containing the medium and the cancer/tumor cells of the respective cell line. For the blank group, 100 μL of PBS was added to a well containing a complete medium the same as that used for cultivation of the cancer/tumor cells of the respective cell line. After the treatment described above, cultivation was conducted in an incubator (37° C., 100% relative humidity, 5% CO2) for 48 hours. Subsequently, the liquid containing the medium and the sample in the well was removed, and a respective complete medium (shown in Table 3 above) containing 10% CCK-8 (Cell Counting Kit-8)(Dojindo Molecular Technologies, Inc., Cat. No. CK04-13) was added. Cultivation was performed in an incubator (37° C.) for 2 to 4 hours, followed by gently shaking.
# [2] = system: human cervical cancer cell line Hela; assay: In vitro antitumor/anticancer testing (CCK-8), Hela; conditions: 48 h
# Description: as §1
# [3] = system: human lung cancer cell line A549; assay: In vitro antitumor/anticancer testing (CCK-8), A549; conditions: 48 h
# Description: as §1
# [4] = system: human glioblastoma cell line U-87MG; assay: In vitro antitumor/anticancer testing (CCK-8), U-87MG; conditions: 48 h
# Description: as §1
# [5] = system: human mammary gland/duct cancer cell line BT-474; assay: In vitro antitumor/anticancer testing (CCK-8), BT-474; conditions: Homo sapiens, BT-474, 48 h
# Description: as §1
# [6] = system: human prostate cancer cell line PC-3; assay: In vitro antitumor/anticancer testing (CCK-8), PC-3; conditions: Homo sapiens, 48 h
# Description: Each of Tea Product 1 and Conventional Tea Product obtained in section A of this example was used to prepare test tea samples according to the method described below. A proper amount of the respective tea product was added into sterile water to prepare a stock solution with a concentration of 100 mg/mL, followed by using a membrane filter with a pore size of 0.22 μm to conduct vacuum filtration and sterilization. The resulting stock solution was diluted with a respective complete medium shown in Table 3 below to form test tea samples with different concentrations. In other words, the thus obtained test tea samples to be used for treating a respective cancer/tumor cell line shown in Table 3 were prepared using the same complete medium as that for the respective cancer/tumor cell line.
# Specifically, each of the aforesaid commercially available agents was subjected to the method described below to prepare comparative test samples. A proper amount of a respective commercially available agent was dissolved in phosphate-buffered saline (PBS) to prepare a stock solution with a concentration of 5 mg/mL, followed by using a membrane filter with a pore size of 0.22 μm to conduct vacuum filtration and sterilization. The resulting stock solution was diluted with a respective complete medium shown in Table 3 below to form comparative test samples with different concentrations. To be specific, the comparative test samples prepared from the respective commercially available agent have the concentrations shown in Table 2 below. The thus obtained comparative test samples to be used for treating a respective cancer/tumor cell line shown in Table 3 were prepared using the same complete medium as that for the respective cancer/tumor cell line.
# The following cancer/tumor cells purchased from Chinese Academy of Sciences, Shanghai Institutes for Biological Sciences, Institute of Biochemistry and Cell Biology were used for in vitro antitumor/anticancer testing: human liver cancer cell line HepG2, human ovarian cancer cell line SK-OV-3, human cervical cancer cell line Hela, human lung cancer cell line A549, human glioblastoma cell line U-87MG, human mammary gland/duct cancer cell line BT-474, human prostate cancer cell line PC-3, human leukemia cell line HL-60, human gastric cancer cell line SMMC-7721, human colon cancer cell line HCT-116, human squamous cell carcinoma cell line A431, human leukemia cell line K562, human pancreatic cancer cell line PANC-1, and human gastric cancer cell line BGC-823.
# The cultivation of each cancer/tumor cell line is described as follows. The cancer/tumor cancer cells were cultivated in the respective complete medium supplemented with 100 μg/mL penicillin and 100 μg/mL streptomycin in an incubator (37° C., 100% relative humidity, 5% CO2). When adherent cancer/tumor cells reached 80% confluence during the log-phase, cell detachment was conducted using 0.6 mL of 0.3% trypsin. Afterwards, a cell suspension having a cell density of 1.0×10^4 cells/mL was prepared. 100 μL of the cell suspension (i.e. 1000 cancer/tumor cells) was added into wells of a 96-well plate (Cat. No. 3599, Corning Costar), followed by cultivation in an incubator (37° C., 100% relative humidity, 5% CO2) for 24 hours.
# As experimental groups, the tumor/cancer cells of each cell line were treated with the test tea samples prepared from one or more of the tea products and the comparative test samples prepared from one or more of the commercially available agents as obtained in section B of this example (for more detailed information about the tea product(s) and the commercially available product (s) used to treat each cell line, please see Table 4 below). To be specific, 6 to 10 test tea samples prepared from the same tea product and having different concentrations, as well as 6 to 10 comparative test samples prepared from the same commercially available agent and having different concentrations, were utilized to treat the tumor/cancer cells of each cell line. […]
# [7] = system: human leukemia cell line HL-60; assay: In vitro antitumor/anticancer testing (CCK-8), HL-60; conditions: Homo sapiens, HL-60, 48 h
# Description: as §1
# [8] = 0.125 μg/mL, read-out: Percent growth inhibition
# [9] = 0.25 μg/mL, read-out: Percent growth inhibition
# [10] = 0.5 μg/mL, read-out: Percent growth inhibition
# [11] = 1 μg/mL, read-out: Percent growth inhibition
# [12] = 2 μg/mL, read-out: Percent growth inhibition
# [13] = 4 μg/mL, read-out: Percent growth inhibition
# [14] = 8 μg/mL, read-out: Percent growth inhibition
# [15] = 16 μg/mL, read-out: Percent growth inhibition
# [16] = 32 μg/mL, read-out: Percent growth inhibition
structure (smiles),measurement,setting,value
N.N.[Cl][Pt][Cl] [Cisplatin],Percent growth inhibition,[1]; 0.0625 μg/mL,5.63%
same,Percent growth inhibition,[1]; 0.125 μg/mL,6.86%
same,Percent growth inhibition,[1]; 0.25 μg/mL,13.36%
same,Percent growth inhibition,[1]; 0.5 μg/mL,28.16%
same,Percent growth inhibition,[1]; 1 μg/mL,51.92%
same,Percent growth inhibition,[1]; 2 μg/mL,65.87%
same,Percent growth inhibition,[1]; 4 μg/mL,81.38%
same,Percent growth inhibition,[1]; 8 μg/mL,88.36%
same,Percent growth inhibition,[1]; 16 μg/mL,83.65%
same,IC50,[1]; SK-OV-3,IC50 (μg/mL) = 1.112
same,Percent growth inhibition,[2]; 0.0625 μg/mL,−3.05%
same,Percent growth inhibition,[2]; 0.125 μg/mL,−7.31%
same,Percent growth inhibition,[2]; 0.25 μg/mL,−11.93%
same,Percent growth inhibition,[2]; 0.5 μg/mL,−33.69%
same,Percent growth inhibition,[2]; 1 μg/mL,−29.75%
same,Percent growth inhibition,[2]; 2 μg/mL,16.62%
same,Percent growth inhibition,[2]; 4 μg/mL,90.1%
same,Percent growth inhibition,[2]; 8 μg/mL,98.3%
same,Percent growth inhibition,[2]; 16 μg/mL,98.98%
same,IC50,[2]; Hela,IC50 (μg/mL) = 2.656
same,Percent growth inhibition,[3]; 0.125 μg/mL,6.73%
same,Percent growth inhibition,[3]; 0.25 μg/mL,8.55%
same,Percent growth inhibition,[3]; 0.5 μg/mL,14.21%
same,Percent growth inhibition,[3]; 1 μg/mL,29.60%
same,Percent growth inhibition,[3]; 3 μg/mL,88.98%
same,Percent growth inhibition,[3]; 4 μg/mL,57.57%
same,Percent growth inhibition,[3]; 7 μg/mL,36.60%
same,Percent growth inhibition,[3]; 16 μg/mL,97.45%
same,IC50,[3]; A549,IC50 (μg/mL) = 2.503
same,Percent growth inhibition,[4]; 0.0625 μg/mL,2.27%
same,Percent growth inhibition,[4]; 0.125 μg/mL,1.91%
same,Percent growth inhibition,[4]; 0.25 μg/mL,0.10%
same,Percent growth inhibition,[4]; 0.5 μg/mL,2.72%
same,Percent growth inhibition,[4]; 1 μg/mL,20.84%
same,Percent growth inhibition,[4]; 2 μg/mL,43.00%
same,Percent growth inhibition,[4]; 4 μg/mL,63.60%
same,Percent growth inhibition,[4]; 8 μg/mL,85.10%
same,Percent growth inhibition,[4]; 16 μg/mL,76.01%
same,IC50,[4]; U-87MG,IC50 (μg/mL) = 2.751
COc1cccc2c1C(=O)c1c(O)c3c(c(O)c1C2=O)C[C@@](O)(C(=O)CO)C[C@@H]3O[C@H]1C[C@H](N)[C@@H](O)[C@H](C)O1 [Epirubicin],inhibition at 0.015625 µg/mL,"[5]; 0.015625 μg/mL, read-out: Percent growth inhibition",8.91%
same,inhibition at 0.03125 µg/mL,"[5]; 0.03125 μg/mL, read-out: Percent growth inhibition",1.2%
same,inhibition at 0.0625 µg/mL,"[5]; 0.0625 μg/mL, read-out: Percent growth inhibition",2.5%
same,inhibition at 0.125 µg/mL,[5]; [8],6.31%
same,inhibition at 0.25 µg/mL,[5]; [9],17.4%
same,inhibition at 0.5 µg/mL,[5]; [10],22.4%
same,inhibition at 1 µg/mL,[5]; [11],33.4%
same,inhibition at 2 µg/mL,[5]; [12],53.5%
same,inhibition at 4 µg/mL,[5]; [13],72.6%
same,IC50,[5]; read-out: IC50,1.7 µg/mL
same,inhibition at 0.125 µg/mL,[6]; [8],32.7%
same,inhibition at 0.25 µg/mL,[6]; [9],48%
same,inhibition at 0.5 µg/mL,[6]; [10],55.1%
same,inhibition at 1 µg/mL,[6]; [11],66.1%
same,inhibition at 2 µg/mL,[6]; [12],74%
same,inhibition at 4 µg/mL,[6]; [13],82%
same,inhibition at 8 µg/mL,[6]; [14],82.8%
same,inhibition at 16 µg/mL,[6]; [15],81.6%
same,inhibition at 32 µg/mL,[6]; [16],85.6%
same,IC50,"[6]; PC-3, read-out: IC50",0.334 µg/mL
COc1cc([C@@H]2c3cc4c(cc3[C@@H](O[C@@H]3O[C@@H]5CO[C@@H](C)O[C@H]5[C@H](O)[C@H]3O)[C@H]3COC(=O)[C@H]23)OCO4)cc(OC)c1O [Etoposide],inhibition at 0.125 µg/mL,[7]; [8],62.4%
same,inhibition at 0.25 µg/mL,[7]; [9],73.6%
same,inhibition at 0.5 µg/mL,[7]; [10],82.9%
same,inhibition at 1 µg/mL,[7]; [11],97.8%
same,inhibition at 2 µg/mL,[7]; [12],100%
same,inhibition at 4 µg/mL,[7]; [13],100%
same,inhibition at 8 µg/mL,[7]; [14],100%
same,inhibition at 16 µg/mL,[7]; [15],101%
same,inhibition at 32 µg/mL,[7]; [16],100%
same,IC50,[7]; read-out: IC50,0.0855 µg/mL
